Publication PMC8998746, “Effect of Clinically Used Microtubule Targeting Drugs on Viral Infection and Transport Function” (International Journal of Molecular Sciences, 2022)
Where two headings read alike, the source gives them in different places.

How the values were obtained:
[1] = tested on: KBP (kinesin) movement along MTs in AHRTG cells; assay: In cell motility assay with kinesin binding peptide probe (KBP); type: cell-based, human; conditions: for KBP mean displacement, decrease / KBP mean velocity, decrease / KBP mean movement / proportion of transported particles (TM/CM), reduction: AHRTG cells, NOC 2.5 µM, PTX 10 µM; for KBP mean displacement, decrease / KBP mean velocity, decrease: vs control; for KBP mean movement / proportion of transported particles (TM/CM), reduction: vs untreated
Huh-7 Lunet C3 cells [2] = assay: Cell viability, CellTiter 96 assay, Huh-7 Lunet C3; conditions: Huh-7 Lunet C3, 24 h treatment, over 80% cell viability
Vero E6 cells [3] = assay: Cell viability, CellTiter 96 assay, Vero E6; conditions: Vero E6, 24 h treatment
Vero cells [4] = assay: Cell viability, CellTiter 96 assay, Vero; conditions: 24 h treatment
Huh-7 Lunet C3 cells [5] = conditions: human, 24 h
Vero E6 cells [6] = conditions: African green monkey, 24 h
Vero cells [7] = conditions: African green monkey, 24 h
ASFV BPP30GFP = type: cell-based, African swine fever virus
VACV vtag2GFP = type: cell-based, vaccinia virus
[8] = tested on: VSV-G-luc (vesicular stomatitis virus); type: cell-based
[9] = tested on: DBP (dynein) movement along MTs in AHRTG cells; assay: In cell motility assay with dynein binding peptide probe (DBP); type: cell-based, human; conditions: for DBP mean displacement, decrease / DBP mean velocity, decrease / DBP mean movement / proportion of transported particles (TM/CM), reduction: NOC 2.5 µM, PTX 10 µM; for DBP mean displacement, decrease / DBP mean velocity, decrease: vs control; for DBP mean movement / proportion of transported particles (TM/CM), reduction: vs untreated
[10] = tested on: SARS-CoV-2 strain NL/2020; assay: microbe, parasite or virus in culture; type: cell-based; conditions: Severe acute respiratory syndrome coronavirus 2; A549-ACE2 cells, 1 h pretreatment, 48 h, optimal dose (PPT 100 nM); read-out: inhibition of SARS-CoV-2 infection

| SMILES | highest non-toxic concentration (Huh-7 Lunet C3 cells [2]) | highest non-toxic concentration (Vero E6 cells [3]) | highest non-toxic concentration (Vero cells [4]) | highest non-toxic concentration (Huh-7 Lunet C3 cells [5]) | highest non-toxic concentration (Vero E6 cells [6]) | highest non-toxic concentration (Vero cells [7]) | other results |
| --- | --- | --- | --- | --- | --- | --- | --- |
| CCCSc1ccc2nc(NC(=O)OC)[nH]c2c1 [ABZ, albendazole] | 1 nM | 25 nM | 25 nM | – | – | – | effect on KBP movement (TM/CM ratio) [1]: very low effect on motion; effect on KBP particle displacement [1]: no significant modification; effect on KBP particle velocity [1]: no significant modification |
| COc1cc2c(c(OC)c1OC)-c1ccc(OC)c(=O)cc1[C@@H](NC(C)=O)CC2 [COL, colchicine] | 0.2 nM | 25 nM | 75 nM | – | – | – | – |
| CO[C@H]1C(=O)[C@]2(C)[C@@H](OC)C[C@H]3OC[C@@]3(OC(C)=O)[C@H]2[C@H](OC(=O)c2ccccc2)[C@]2(O)C[C@H](OC(=O)[C@H](O)[C@@H](NC(=O)OC(C)(C)C)c3ccccc3)C(C)=C1C2(C)C [CTX, cabazitaxel] | 0.01 nM | 25 nM | 10 nM | – | – | – | effect on KBP movement (TM/CM ratio) [1]: affected particle motion |
| CC(=O)O[C@@]12CO[C@@H]1C[C@H](O)[C@@]1(C)C(=O)[C@H](O)C3=C(C)[C@@H](OC(=O)[C@H](O)[C@@H](NC(=O)OC(C)(C)C)c4ccccc4)C[C@@](O)([C@@H](OC(=O)c4ccccc4)[C@H]21)C3(C)C [DTX, docetaxel] | 0.03 nM | 10 nM | 10 nM | – | – | – | – |
| C/C(=C\c1csc(C)n1)[C@@H]1C[C@@H]2O[C@]2(C)CCC[C@H](C)[C@H](O)[C@@H](C)C(=O)C(C)(C)[C@@H](O)CC(=O)N1 [EPO, ixabepilone] | – | – | – | 0.05 nM | 25 nM | 25 nM | – |
| C=C1C[C@@H]2CC[C@@]34C[C@H]5O[C@H]6[C@@H](O3)[C@H]3O[C@H](CC[C@@H]3O[C@H]6[C@H]5O4)CC(=O)C[C@@H]3[C@@H](OC)[C@@H](C[C@H](O)CN)O[C@H]3C[C@H]3O[C@@H](CC[C@@H]1O2)C[C@@H](C)C3=C [ERIB, eribulin] | – | – | – | 0.01 nM | 10 nM | 100 nM | inhibition of ASFV early infection (BPP30GFP) (ASFV BPP30GFP): up to 50% |
| COC(=O)Nc1nc2ccc(Sc3ccccc3)cc2[nH]1 [FBZ, febendazole] | – | – | – | 1 nM | 50 nM | 75 nM | reduction of VACV (vtag2GFP) viral infection (VACV vtag2GFP): 40%; inhibition of ASFV early infection (BPP30GFP) (ASFV BPP30GFP): 30% |
| COc1cc2cc(c1Cl)N(C)C(=O)C[C@H](OC(=O)[C@H](C)N(C)C(C)=O)[C@]1(C)O[C@H]1[C@H](C)[C@@H]1C[C@@](O)(NC(=O)O1)[C@H](OC)/C=C/C=C(\C)C2 [MAYT, maytansine] | 0.1 nM | 25 nM | 25 nM | – | – | – | effect on KBP movement (TM/CM ratio) [1]: significant reduction of the TM/CM ratio; decrease of VSV infection [8]: 40% |
| COC(=O)Nc1nc2ccc(C(=O)c3ccccc3)cc2[nH]1 [MBZ, mebendazole] | – | – | – | 5 nM | 10 nM | 10 nM | concentration at which the DBP TM/CM ratio was affected ([9]; dose-response 0.1-10 μM MBZ): > 2.5 µM |
| COC(=O)Nc1nc2ccc(C(=O)c3cccs3)cc2[nH]1 [NOC, nocodazole] | – | – | – | – | – | – | KBP mean displacement, decrease [1]: 54%; KBP mean velocity, decrease [1]: 36%; KBP mean movement / proportion of transported particles (TM/CM), reduction [1]: 68%; DBP mean displacement, decrease [9]: 44%; DBP mean velocity, decrease [9]: 30%; DBP mean movement / proportion of transported particles (TM/CM), reduction [9]: 60% |
| COc1ccc2c(c1OC)C(=O)O[C@@H]2[C@H]1c2c(cc3c(c2OC)OCO3)CCN1C [NOS, noscapine] | – | – | – | 100 nM | 100 nM | 100 nM | effect on KBP movement (TM/CM ratio) [1]: no effect on KBP movement |
| CC(C)(C)c1[nH]cnc1/C=c1\[nH]c(=O)/c(=C/c2ccccc2)[nH]c1=O [PLIN, plinabulin] | 0.5 nM | 25 nM | 25 nM | – | – | – | reduction of VACV (vtag2GFP) viral infection (VACV vtag2GFP): 50%; inhibition of ASFV early infection (BPP30GFP) (ASFV BPP30GFP): 30% |
| COc1cc([C@@H]2c3cc4c(cc3[C@H](O)[C@H]3COC(=O)[C@H]23)OCO4)cc(OC)c1OC [PPT, podophylotoxin] | 0.2 nM | 50 nM | 50 nM | – | – | – | inhibition at 0.1 µM [10]: 60% |
| CC(=O)O[C@H]1C(=O)[C@@]2(C)[C@H]([C@H](OC(=O)c3ccccc3)[C@]3(O)C[C@H](OC(=O)[C@H](O)[C@@H](NC(=O)c4ccccc4)c4ccccc4)C(C)=C1C3(C)C)[C@]1(OC(C)=O)CO[C@@H]1C[C@@H]2O [PTX, paclitaxel] | – | – | – | 5 nM | 25 nM | 25 nM | effect on KBP particle displacement [1]: significantly decreased the displacement of particles; KBP mean displacement, decrease [1]: 16%; KBP mean velocity, decrease [1]: no meaningful changes; KBP mean movement / proportion of transported particles (TM/CM), reduction [1]: 17%; DBP mean displacement, decrease [9]: no alterations; DBP mean velocity, decrease [9]: no alterations; DBP mean movement / proportion of transported particles (TM/CM), reduction [9]: 27% |
| CC[C@]1(O)C[C@@H]2CN(CCc3c([nH]c4ccccc34)[C@@](C(=O)OC)(c3cc4c(cc3OC)N(C)[C@H]3[C@@](O)(C(=O)OC)[C@H](OC(C)=O)[C@]5(CC)C=CCN6CC[C@]43[C@@H]65)C2)C1 [VBL, vinblastine] | – | – | – | 0.05 nM | 5 nM | 25 nM | inhibition of ASFV early infection (BPP30GFP) (ASFV BPP30GFP): up to 50%; decrease of VSV infection [8]: 90% |
| CC[C@]1(O)C[C@H]2CN(CCc3c([nH]c4ccccc34)[C@@](C(=O)OC)(c3cc4c(cc3OC)N(C=O)[C@H]3[C@@](O)(C(=O)OC)[C@H](OC(C)=O)[C@]5(CC)C=CCN6CC[C@]43[C@@H]65)C2)C1 [VCR, vincristine] | – | – | – | 5 nM | 1 nM | 1 nM | – |
| CC[C@]1(O)C[C@@H]2CN(CCc3c([nH]c4ccccc34)[C@@](C(=O)OC)(c3cc4c(cc3OC)N(C)[C@H]3[C@@](O)(C(N)=O)[C@H](O)[C@]5(CC)C=CCN6CC[C@]43[C@@H]65)C2)C1 [VDS, vindesine] | – | – | – | 0.02 nM | 100 nM | 100 nM | inhibition of ASFV early infection (BPP30GFP) (ASFV BPP30GFP): up to 50%; decrease of VSV infection [8]: 80% |
